pEC50: −log10 of the molar value. “And” between values parts separate entries of the source, which are not always exact repeats. Identical values can stand only once.
Target: T1, OR1A1 (Homo sapiens, UniProt Q9P1Q5)
T1 sequence (Q9P1Q5 1-309): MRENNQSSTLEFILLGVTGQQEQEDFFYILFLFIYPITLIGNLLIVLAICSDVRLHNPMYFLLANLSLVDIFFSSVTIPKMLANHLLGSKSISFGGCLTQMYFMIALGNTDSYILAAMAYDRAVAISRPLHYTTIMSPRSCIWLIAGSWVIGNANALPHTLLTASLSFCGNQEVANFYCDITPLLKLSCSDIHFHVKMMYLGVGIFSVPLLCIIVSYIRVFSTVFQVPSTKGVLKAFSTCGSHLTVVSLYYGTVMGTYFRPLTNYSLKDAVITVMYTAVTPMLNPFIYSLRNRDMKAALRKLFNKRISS
Assay: Dual-Glo luciferase reporter gene assay, OR1A1 in Hana3A cells
Format: cell-based
Parameters: The open reading frames of ORs were amplified using Phusion polymerase; Rho-tag (first 20 amino acids of human rhodopsin) (N); expressed in transfected cells; host or cells: Hana3A cells (derived from HEK293T), pCI vector; co-transfected with human RTP1S, M3 receptor, CRE-Luc and SV40-RL
Conditions: for activation of OR1A1 in dose-responses: Figure 4A; for Bottom / normilazed value = (L-400/R-400) / Top / pEC50 / LogEC50: OR1A1; for Bottom / Top: log(agonist) vs. response (three parameters), normalized (L-400/R-400); for normilazed value = (L-400/R-400) / LogEC50: log[molecule]; for normilazed value = (L-400/R-400): three replicates; for LogEC50: M
Protocol: Hana3A cells were maintained in minimal essential medium containing 10% FBS (vol/vol) with penicillin-streptomycin and amphotericin B (1/200 each vol/vol) at 37 °C and 5% CO2. Hana3A cells are derived from HEK293T [57] and are optimized for OR studies as shown in several studies, compared to earlier OR expression in Sf9 insect cells in Gat et al., and in Xenopus oocytes, COS-7, PC12h and CHO-K1 cells in Katada et al..
The Dual-Glo luciferase assay system (Promega, Madison, WI, USA) was used to evaluate the functionality of wild-type OR1A1 and OR2W1 in an in vitro system. The open reading frames of ORs were amplified using Phusion polymerase (Thermo Fisher Scientific, Waltham, MA, USA). Amplified fragments were cloned into pCI expression vector (Promega, Madison, WI, USA) containing the sequence encoding the first 20 amino acids of human rhodopsin (Rho-tag) at N-terminal. Hana3A cells have been cultured and plated the day before transfection with 6 mL at 1/10 of a 100% confluence 100 mm plate into 96-well plates coated with poly D-lysine. After overnight incubation, the required genes were transfected using, for each plate, 5 ng SV40-RL, 10 ng CRE-Luc, 5 ng human RTP1S [72], 2.5 ng M3 receptor [73] and 5 ng of receptor (OR1A1, OR2W1 or empty vector Rho-pCI) plasmid. After around 18 h of transfection, cells were stimulated during 3.5 h by 25 µL of odorant diluted in CD293 + 1% glutamine + 30 µM CuCl2. Odorants were obtained from Sigma Aldrich (St. Louis, MO, USA) and diluted at 1 M concentration in DMSO as stock solutions. […] The luminescence of Firefly (Luc) and Renilla (Rluc) luciferase, were then sequentially monitored by injecting the corresponding substrate following the supplier’s protocol. The activity in each well was normalized as (Luc-400)/(Rluc-400). The response of the receptor was also normalized to its basal activity as (NLX/NL0)-1 where NL0 is the normalized luminescence value at 0 µM of odorant and NLX the value at X µM. […] Raw results were first analyzed with Excel (Microsoft Corporation, Albuquerque, NM, USA) and dose response curves, max efficacy and EC50 have been determined with GraphPrism 6 software (GraphPad Software, La Jolla, CA, USA). Areas under the curves (AUC) were calculated in Excel by summing all the OR responses at different concentrations for each odorant.

[1] = three-parameter fit, 95% CI (profile likelihood)

| SMILES | activation of OR1A1 in dose-responses | Bottom (95% CI (profile likelihood)) | normilazed value = (L-400/R-400) (M = -3.5) | normilazed value = (L-400/R-400) (M = -3.75) | normilazed value = (L-400/R-400) (M = -4) | normilazed value = (L-400/R-400) (M = -4.25) | normilazed value = (L-400/R-400) (M = -4.5) | normilazed value = (L-400/R-400) (M = -4.75) | normilazed value = (L-400/R-400) (M = -5) | normilazed value = (L-400/R-400) (M = -5.25) | normilazed value = (L-400/R-400) (M = -5.5) | normilazed value = (L-400/R-400) (M = -5.75) | normilazed value = (L-400/R-400) (M = -6) | Top (95% CI (profile likelihood)) | pEC50 [1] | LogEC50 [1] | pEC50 (95% CI) |
| --- | --- | --- | --- | --- | --- | --- | --- | --- | --- | --- | --- | --- | --- | --- | --- | --- | --- |
| c1cnc2c(c1)ccc1cccnc12 [1,10-Phenanthroline] | did not activate OR1A1 | 1.108 to 2.224 | -5 and -0.03226 and 0.3636 | 0.5532 and 0.08791 and 0.1429 | -3.909 and 0.2121 and 0.03846 | 1.0814 and 2.077 and 1.521 | 1.468 and 1.358 and 1.008 | 0.8876 and 1.015 and 1.576 | 1.356 and 1.5085 and 1.392 | 1.691 and 1.671 and 2.1214 | 1.201 and 1.5718 and 1.847 | 1.3268 and 1.745 and 1.5675 | 1.452 and 1.389 and 1.692 |  |  |  |  |
| C=C(C)[C@H]1CC=C(C)CC1 [Dipentene] | weak activator | 0.9206 to 2.078 | 15.0728 and 8.79 and 8.6943 | 10.4582 and 8.9424 and 9.316 | 8.181 and 7.514 and 8.062 | 7.841 and 5.647 and 6.278 | 5.494 and 4.914 and 4.401 | 3.7707 and 3.641 and 3.368 | 2.7632 and 2.301 and 2.9635 | 2.721 and 2.59 and 2.766 | 2.326 and 2.0399 and 1.767 | 1.87 and 1.732 and 1.479 | 1.6 and 1.531 and 1.2039 | 11.22 to 15.68 | 3.87 to 4.35 | -4.348 to -3.874 |  |
| CCOC(=O)Cc1cccc(Br)c1 [Ethyl 2-(3-bromophenyl)acetate] | able to activate OR1A1 | 0.4401 to 2.007 | 9.12 and 11.0639 and 10.393 | 11.9065 and 11.6251 and 11.7476 | 13.3839 and 12.372 and 11.9409 | 8.912 and 11.2901 and 12.3912 | 7.943 and 8.382 and 10.0109 | 5.611 and 6.9779 and 6.123 | 5.045 and 5.149 and 4.806 | 3.622 and 3.689 and 4.46 | 2.564 and 3.159 and 3.452 | 2.1766 and 2.696 and 2.931 | 1.855 and 2.338 and 2.234 | 11.66 to 13.55 | 4.61 to 4.94 | -4.940 to -4.613 | 4.61 to 4.94 |
| COC(=O)Cc1ccccc1C [Methyl 2-(2-methylphenyl)acetate] | able to activate OR1A1 | 0.03511 to 1.535 | 10.0524 and 12.0337 and 11.3132 | 12.5278 and 11.5014 and 12.1842 | 10.2366 and 11.6676 and 13.2311 | 7.699 and 8.952 and 12.582 | 7.699 and 8.491 and 8.724 | 5.333 and 7.756 and 8.263 | 4.586 and 4.422 and 5.725 | 3.435 and 3.266 and 4.088 | 2.183 and 2.432 and 2.624 | 1.457 and 1.905 and 2.354 | 1.1663 and 1.179 and 1.777 | 11.79 to 13.66 | 4.60 to 4.91 | -4.914 to -4.603 | 4.60 to 4.91 |
